Measured values published in patent US7435407B2, “Inhibition of olfactory neurosensory function to treat eating disorders and obesity” (Compellis Pharmaceuticals, priority 2002, dated 2008).

How the values were obtained:
olfactory epithelium = assay: Electro-olfactory (EOG) recording of olfactory epithelium response to odorant Citralva; type: in vivo, mice; conditions: 10 μl/nostril intranasal, recording 10 min later
Experimental: A detailed description of the method employed is provided, e.g., by Wong et al. (Neuron 2000: 27: 487-97), and Scott (J Neurosci 2000; 15:4721-31). Briefly, six week old mice were used and each mouse was given 10 μl/nostril of Diltiazem at 10 μM, 100 μM, or saline. It was returned to home cage and euthanized 10 min later for electro-olfactory (EOG) recording. The odorant was Ciltralva at 5 μM. Also included was a “no treatment” control.

[1] = Rota-Rod test after intranasal administration; type: in vivo, rat; conditions: intranasal 1 mg/kg; 6 rpm; sessions 0-60 minutes after administration
Experimental: Two groups of rats (12 rats each) were tested. Each rat went through 8 sessions on the rota-rod: 3 sessions before drug administration (pretest, time −45, −30, and −15 minutes); 1 session immediately after the drug was administered (time 0); and 4 sessions after drug administration (time 15, 30, 45, and 60 minutes).
A speed of 6 rpm was used, and diltiazem was administered, as described above, intra-nasally at 1 mg/kg.

[2] = Food intake in food-deprived rats after intranasal administration; type: in vivo, rat
Experimental: Male Sprague-Dawley rats, 150-175 g at the start of the experiments (Charles River Laboratories, Wilmington, Mass.) were housed individually in suspended wire mesh cages; maintained on a reversed-lighting schedule (lights-on at 7 p.m., lights-off at 7 a.m.); and acclimated to our climate controlled animal facility and to the test diets for 7 days prior to experimentation. As the experiments in food-deprived rats were performed during the dark cycle, a dull red light (25 watt) was used to help with placement and weighing of the food jars.
Rats had ad libitum access to tap water and food (Rodent Laboratory Chow No. 5001-pellet form, Purina) on non-testing days. A mush diet, used for experiments on food-deprived animals, and composed of equal parts by weight of ground rodent chow (Purina, # 5001-meal form) and a 4% nutrient agar solution (Teklad Diets) was presented to the animals in glass jars. […]
One hour after administration, pre-weighed food jars were introduced into the cage and a sheet of clean white paper placed under each cage to catch any spillage. The amount of food consumed after 1, 2 and 4 hours was determined to the nearest 0.01 g. […]
One hour later pre-weighed food jars were introduced into the cage and a sheet of clean white paper placed under each cage to catch any spillage. The amount of food consumed after 1, 2 and 4 hours was determined to the nearest 0.01 g.

## COc1ccc([C@@H]2Sc3ccccc3N(CCN(C)C)C(=O)[C@@H]2OC(C)=O)cc1 [diltiazem, Diltiazem]
Olfactory epithelium; 10 μM
  effect on olfactory nerve activity (EOG response to Citralva 5 μM): little effect
Olfactory epithelium; 100 μM
  effect on olfactory nerve response (EOG response to Citralva 5 μM): blocked
[1]
  activity (balance and agility) in Rota-Rod test, drug versus vehicle group: no indications of a difference in activity
[2]; dosing study, intranasal 20 μL/nostril, 0.02, 0.2 and 2 mg/kg, strong trend (FIG. 2)
  optimal dose (concentration of solution) for reduction of food intake: 0.2-20 % w/v
[2]; intranasal 20 μL/nostril, 0.02-2 mg/kg, food given 1 hour after administration, consumed after 1, 2 and 4 hours, versus placebo (FIG. 1)
  amount of food consumed: consumed significantly less food
